Earlier results on three molecules are cited in US6933291B2, “Cholesterol lowering supplement” (N.V. Nutricia, priority 2000, dated 2005).

The conditions of series [1]: case reports from the literature.
The conditions of series [2]: rats.
The next series deals with HMG-CoA reductase. Particulars: rats given cholesterol.

Regarding `CC[C@H](C)C(=O)O[C@H]1C[C@@H](C)C=C2C=C[C@H](C)[C@H](CC[C@@H]3C[C@@H](O)CC(=O)O3)[C@H]21` [Lovastatin, lovastatin], in series [1], the “adverse effect reported in patients” value is “liver failure”.

Turning to `CC[C@H](CC[C@@H](C)[C@H]1CC[C@H]2[C@@H]3CC=C4C[C@@H](O)CC[C@]4(C)[C@H]3CC[C@]12C)C(C)C` [beta-sitosterol], the “cholesterol absorption (effect in words)” value in series [2] is “inhibited”. Besides, the cholesterol synthesis in series [2] (increased from 20.0 mg/day) is on record as 28.8 mg/day.

Regarding `CC(C)CCC[C@@H](C)[C@H]1CC[C@H]2[C@@H]3CC=C4C[C@@H](O)CC[C@]4(C)[C@H]3CC[C@]12C` [cholesterol], in the series on HMG-CoA reductase, the “HMG-CoA reductase activity inhibited” value was 80%. The “conversion of cholesterol to bile acids” value in series [2] (enhanced from 13.7 mg/day on feeding cholesterol) is recorded as 27.3 mg/day. Besides, the cholesterol absorption in series [2] (increased from 1.2 mg/day on feeding cholesterol) was 70 mg/day.
